Data taken from PMC7188713, “Phase 1 study of napabucasin, a cancer stemness inhibitor, in patients with advanced solid tumors” (Cancer Chemotherapy and Pharmacology, 2020).
Where two headings read alike, the source gives them in different places. Marks after values point to notes of the source that are not given here.

Assay: Plasma and urine pharmacokinetics of napabucasin in patients
Format: in vivo, Japanese patients
Conditions: for AUC(0-t) / AUC(0-inf) / Cmax / half-life / Tmax: human, oral; for AUC(0-t) / AUC(0-inf) / Cmax / half-life / Tmax / CL/F, range / CL/F, range (apparent total clearance at steady state): plasma; for AUC(0-inf): read-out: AUC0–∞, range; for Cmax: read-out: Cmax, range; for half-life: read-out: t1/2, range; for Tmax: read-out: tmax, range
Description: Blood samples for PK were obtained on Days 1, 2, 8, and 15 of Cycle 1 and Days 29 and 30 of Cycle 2. On Day 1 of Cycle 1 and Day 29 of Cycle 2, blood samples were collected before the morning dose and at 2, 4, 6, 8, 10, 12, and 24 h after the morning dose of napabucasin; for samples collected 24 h following the morning dose of napabucasin on Day 1 and Day 29, collection occurred before the morning dose was administered on Day 2 and Day 30, respectively. On Days 8 and 15 of Cycle 1, blood samples were taken 168 and 336 h after the morning dose on Day 1. Urine samples were taken on Days 1 and 2 of Cycle 1 and Days 29 and 30 of Cycle 2. Samples were collected immediately after the morning dose on Days 1 and 29 through to immediately before the morning dose the next day. Plasma napabucasin concentration was measured by Frontage Laboratories and CMIC Pharma Science Co., Ltd and urine napabucasin concentration was measured by CMIC Pharma Science Co., Ltd.
The safety and antitumor activity (intention-to-treat [ITT]) analysis populations included all patients that received at least one dose of napabucasin. The DLT analysis population included all patients that received at least one dose of napabucasin with at least 80% compliance ([number of capsules actually ingested/number of capsules that should have been ingested per dose […]] × 100) during the DLT evaluation period, and those patients who experienced DLT during the evaluation period regardless of compliance. The PK population included all patients that received at least one dose of napabucasin and had plasma napabucasin concentration data for at least one-time point after the first dose of napabucasin.

[1] = 240 mg, Cycle 1 (Day 1), Cohort 1 (480 mg/day, 240 mg BID), n = 3
[2] = 240 mg, Cycle 2 (Day 29), Cohort 1 (480 mg/day, 240 mg BID), n = 3
[3] = 480 mg, Cycle 1 (Day 1), Cohort 2 (960 mg/day, 480 mg BID), n = 4
[4] = 480 mg, Cycle 2 (Day 29), Cohort 2 (960 mg/day, 480 mg BID), n = 3
[5] = 720 mg, Cycle 1 (Day 1), Cohort 3 (1440 mg/day, 720 mg BID), n = 7
[6] = 720 mg, Cycle 2 (Day 29), Cohort 3 (1440 mg/day, 720 mg BID), n = 5

## CC(=O)c1cc2c(o1)C(=O)c1ccccc1C2=O [napabucasin]
240 mg, Cycle 1 (Day 1), Cohort 1 (480 mg/day, 240 mg BID), n = 3, read-out: AUC0–12, range
  AUC(0-t): 1370 to 2990 ng·h/mL
240 mg, Cycle 1 (Day 1), Cohort 1 (480 mg/day, 240 mg BID), n = 3, read-out: AUC0–24, range
  AUC(0-t): 2020 to 3800 ng·h/mL
[1]
  AUC(0-inf): 3650 to 4060 ng·h/mL
  Cmax: 194 to 468 ng/mL
  half-life: 5 to 25 h
  Tmax: 4 to 6 h
240 mg, Cycle 2 (Day 29), Cohort 1 (480 mg/day, 240 mg BID), n = 3, read-out: AUC0–12, range
  AUC(0-t): 2190 to 4940 ng·h/mL
240 mg, Cycle 2 (Day 29), Cohort 1 (480 mg/day, 240 mg BID), n = 3, read-out: AUC0–24, range
  AUC(0-t): 2510 to 6180 ng·h/mL
[2]
  AUC(0-inf): 2570 to 6370 ng·h/mL
  Cmax: 472 to 652 ng/mL
  half-life: 4 to 5 h
  Tmax: 4 to 10 h
480 mg, Cycle 1 (Day 1), Cohort 2 (960 mg/day, 480 mg BID), n = 4, read-out: AUC0–12, range
  AUC(0-t): 984 to 4780 ng·h/mL
480 mg, Cycle 1 (Day 1), Cohort 2 (960 mg/day, 480 mg BID), n = 4, read-out: AUC0–24, range
  AUC(0-t): 1200 to 6360 ng·h/mL
[3]
  AUC(0-inf): 1410 to 7360 ng·h/mL
  Cmax: 199 to 719 ng/mL
  half-life: 7 to 8 h
  Tmax: 2 to 6 h
480 mg, Cycle 2 (Day 29), Cohort 2 (960 mg/day, 480 mg BID), n = 3, read-out: AUC0–12, range
  AUC(0-t): 2560 to 2760 ng·h/mL
480 mg, Cycle 2 (Day 29), Cohort 2 (960 mg/day, 480 mg BID), n = 3, read-out: AUC0–24, range
  AUC(0-t): 2750 to 2880 ng·h/mL
[4]
  AUC(0-inf): 2750 to 2880 ng·h/mL
  Cmax: 391 to 477 ng/mL
  half-life: 2 to 3 h
  Tmax: 2 to 10 h
720 mg, Cycle 1 (Day 1), Cohort 3 (1440 mg/day, 720 mg BID), n = 7, read-out: AUC0–12, range
  AUC(0-t): 3440 to 11000 ng·h/mL
720 mg, Cycle 1 (Day 1), Cohort 3 (1440 mg/day, 720 mg BID), n = 7, read-out: AUC0–24, range
  AUC(0-t): 3920 to 14500 ng·h/mL
[5]
  AUC(0-inf): 3870 to 14800 ng·h/mL
  Cmax: 641 to 2070 ng/mL
  half-life: 3 to 12 h
  Tmax: 2 to 6 h
720 mg, Cycle 2 (Day 29), Cohort 3 (1440 mg/day, 720 mg BID), n = 5, read-out: AUC0–12, range
  AUC(0-t): 3650 to 15400 ng·h/mL
720 mg, Cycle 2 (Day 29), Cohort 3 (1440 mg/day, 720 mg BID), n = 5, read-out: AUC0–24, range
  AUC(0-t): 4480 to 20200 ng·h/mL
[6]
  AUC(0-inf): 4740 to 123000 ng·h/mL
  Cmax: 596 to 1930 ng/mL
  half-life: 5 to 192 h
  Tmax: 2 to 4 h
plasma, 480, 960, 1440 mg/day
  Difference in Cmax and AUC0–12 between doses: no clear difference between doses
Cycle 1 (Day 1), Cohort 1 (480 mg/day, 240 mg BID), n = 3
  CL/F, range: 59 to 66 L/h
Cycle 1 (Day 1), Cohort 2 (960 mg/day, 480 mg BID), n = 4
  CL/F, range: 65 to 341 L/h
Cycle 1 (Day 1), Cohort 3 (1440 mg/day, 720 mg BID), n = 7
  CL/F, range: 49 to 186 L/h
Cycle 2 (Day 29), Cohort 1 (480 mg/day, 240 mg BID), n = 3
  CL/F, range (apparent total clearance at steady state): 49–109^a L/h
Cycle 2 (Day 29), Cohort 2 (960 mg/day, 480 mg BID), n = 3
  CL/F, range (apparent total clearance at steady state): 174–188^a L/h
Cycle 2 (Day 29), Cohort 3 (1440 mg/day, 720 mg BID), n = 5
  CL/F, range (apparent total clearance at steady state): 47–197^a L/h
Repeated BID dosing, Cycle 1 to Cycle 2
  Accumulation in plasma: no abnormal accumulation was observed
urine, 480, 960, 1440 mg/day
  Difference in urinary PK between cohorts: no clear differences were observed between cohorts
